Columns and labels:
[1] = Body weight of the mice in the xenograft studies; format: in vivo; settings: for Body weight (weight loss): A549 study; for Body weight / tolerability: 250 mg/kg
[2] = tested on: A549 Non-Small Cell Lung Cancer (NSCLC) Xenograft; test: A549 non-small cell lung cancer (NSCLC) xenograft model, tumor volume; format: in vivo, SCID mice
Description: Six weeks old female SCID mice were purchased from Charles River Laboratories (Wilmington, Mass.) and were acclimated for 1 week before the start of the study. […] The cells were implanted subcutaneously over the right flank of the mice at 5×10^6 cells/100 μl/mouse. One day after tumor implantation, mice were randomized according to body weight at 10 mice per group.
The tumor volume and body weight of the mice were monitored twice a week throughout each study.
The tumor volume of each group of mice at the end of each study was analyzed by one-way ANOVA followed by Tukey's test.
Cisplatin was purchased from Sigma-Aldrich (St. Louis, Mo.; Cat. No. P4394), formulated in 0.9% saline, and administered i.p. at 3.5 mg/kg ([…]) once per week for six weeks. Saline was used as negative control and was administered i.p. at 100 μl per mouse twice a week for six weeks.
On day 42, when the average tumor volume in the vehicle group reached 1300 mm^3, the mice were euthanized by isoflurane inhalation and cervical dislocation.
FGFR1-ECD.339-Fc was formulated in 0.9% Saline for Injection USP at 3 mg/ml. […] FGFR1-ECD.339-Fc was administered intraperitoneally (i.p.) at 15 mg/kg twice per week for 5 weeks. Paclitaxel was administered i.p. at 18 mg/kg on days 8, 12, and 15.
When the average tumor volume in vehicle control group reached ˜500 mm^3, the mice were euthanized by isoflurane inhalation and cervical dislocation.
FGFR1-ECD.339-Fc was formulated in 0.9% Saline for Injection USP at 3 mg/ml. 5-FU was purchased from Sigma-Aldrich (St. Louis, Mo.; Cat. No. F6627) and was initially dissolved in dimethyl sulfoxide (DMSO, Sigma-Aldrich, St. Louis, Mo.; Cat. No. D8418-50) at the concentration of 50 mg/ml as a stock solution. The stock solution was further diluted in 0.9% Sodium Chloride Injection USP to 6.6 mg/ml (for 33 mg/kg dosing). FGFR1-ECD.339-Fc was administered intraperitoneally (i.p.) at 15 mg/kg twice per week for four weeks. 5-FU was administered i.p. at 33 mg/kg twice a week for three weeks.
Mice were euthanized on day 31 by isoflurane inhalation and cervical dislocation.
FGFR1-ECD.339-Fc was formulated in PBS at 3 mg/ml and administered intraperitoneally (i.p.) at 15 mg/kg (300 μg/100 μl/mouse) twice a week for four weeks. Docetaxel was administered i.p. at 3 mg/kg or 10 mg/kg twice per week for four weeks.
Mice in the albumin control group were euthanized on day 32 by isoflurane inhalation and cervical dislocation when the average tumor volume in the group reached 1000 mm^3.

[3] = tested on: Colo205 Colon Cancer Xenograft; test: Colo205 colon cancer xenograft model, tumor volume; format: in vivo, SCID mice
Description: Cells were resuspended in a solution of 50%/v PBS and 50%/v Matrigel at a concentration of 25 million cells/ml. Resuspended cells were kept on ice until implantation. […] On day 0, 2.5 million cells/100 μl were implanted over the right flank of the each mouse using a 27G1/2 needle. One day after tumor implantation, the mice were randomized according to the body weight.
Leucovorin (LV) was also purchased from Sigma-Aldrich (Cat. No. F8259) and was formulated in 0.9% Sodium Chloride Injection USP at 2 mg/ml (for 10 mg/kg dosing), to 4 mg/ml (for 20 mg/kg dosing), and to 6 mg/ml (for 30 mg/kg dosing).
In the first experiment, FGFR1-ECD.339-Fc was combined with three different concentrations of 5-FU/leucovorin. In the second experiment, FGFR1-ECD.339-Fc was combined with either bevacizumab or 5-FU/leucovorin, or both. The double line separates the groups from the two experiments.
When the average tumor volume in a group was near 600 mm^3, the mice in that group were euthanized by isoflurane inhalation and cervical dislocation.
The order of effectiveness of the various treatments was evaluated two ways: 1) the average tumor volume in each group on a single time point (day); and 2) time for the average tumor volume in each group to reach 500 mm^3 (see the dotted line in FIG. 11E).
Leucovorin was also purchased from Sigma-Aldrich (Cat. No. F8259) and was formulated in 0.9% Sodium Chloride Injection USP at 2 mg/ml (for 10 mg/kg dosing).
5-FU and leucovorin were each administered i.p. at 10 mg/kg daily for five days. Oxaliplatin was administered i.p. at 5 mg/kg, 10 mg/kg, or 15 mg/kg in one dose on day 1.
Mice were euthanized on day 28 by isoflurane inhalation and cervical dislocation.

[4] = tested on: H520 Non-Small Cell Lung Cancer (NSCLC) Xenograft; test: H520 non-small cell lung cancer (NSCLC) xenograft model, tumor volume; format: in vivo, SCID mice
Description: Dosing for all groups began one day post tumor implantation.
In combination groups, FGFR1-ECD.339-Fc and pemetrexed were administered on the same schedule as when given as single agents, and were administered concurrently on days 1, 4, 8, and 11.

[5] = day 24, FGFR1-ECD.339-Fc 15 mg/kg i.p. 3x/wk x 4 wks, bevacizumab 1 mg/kg i.p. 2x/wk x 4 wks, 5-Fu/LV 10 mg/kg each i.p. q.d. x 5 days
[6] = day 42, FGFR1-ECD.339-Fc 20 mg/kg i.p. 2x/wk x 6 wks, cisplatin 3.5 mg/kg i.p. 1x/wk x 6 wks

**Q.** Which results are given for CC[C@]1(O)C[C@H]2CN(CCc3c([nH]c4ccccc34)[C@@](C(=O)OC)(c3cc4c(cc3OC)N(C=O)[C@H]3[C@@](O)(C(=O)OC)[C@H](OC(C)=O)[C@]5(CC)C=CCN6CC[C@]43[C@@H]65)C2)C1 [Vincristine, methyl (1R,9R,10S,11R,12R,19R)-11-(acetyloxy)-12-ethyl-4-[(13S,15S,17S)-17-ethyl-17-hydroxy-13-(methoxycarbonyl)-1,11-diazatetracyclo[13.3.1.0^4,12.0^5,10]nonadeca-4(12),5,7,9-tetraen-13-yl]-8-formyl-10-hydroxy-5-methoxy-8,16-diazapentacyclo[10.6.1.0^1,9.0^2,7.0^16,19]nonadeca-2,4,6,13-tetraene-10-carboxylate, reference compound]?
**A.** Body weight (weight loss) ([1]; higher dose of vincristine (1.5 mg/kg i.p. days 27, 34, 41), FIG. 9C): lost weight; Body weight (weight loss) ([1]; lower dose of vincristine (1 mg/kg i.p. days 8, 15, 22), data not shown): did not lose weight; Fractional tumor volume (FTV), each treatment alone ([2]; day 39, FGFR1-ECD.339-Fc 15 mg/kg i.p. 2x/wk (start day 1), vincristine 1 mg/kg i.p. days 8, 15, 22): 0.53; Fractional tumor volume (FTV), each treatment alone ([2]; day 46, FGFR1-ECD.339-Fc 15 mg/kg i.p. 2x/wk (start day 1), vincristine 1 mg/kg i.p. days 8, 15, 22): 0.55; Fractional tumor volume (FTV), each treatment alone ([2]; day 70, FGFR1-ECD.339-Fc 20 mg/kg i.p. 2x/wk (start day 19), vincristine 1.5 mg/kg i.p. days 27, 34, 41): 0.41

**Q.** For “Bevacizumab: recombinant humanized anti-VEGF monoclonal antibody [reference compound]”, which “Fractional tumor volume (FTV), each treatment alone” value ([3]; Day 24, FGFR1-ECD.339-Fc 15 mg/kg i.p. 3x/wk x 4 wks, bevacizumab 1 mg/kg i.p. 2x/wk x 4 wks, 5-Fu/LV 10 mg/kg each q.d. x 5 days) is on record?
**A.** Its value is 0.58.

**Q.** And the “Order of antitumor effect of the treatment groups” value ([3]; by average tumor volume on a single day and by time for average tumor volume to reach 500 mm^3 (FIG. 11E), value gives the next-ranked group)?
**A.** The value was “>FGFR1-ECD.339-Fc”.

**Q.** What about the “Mean Tumor volume mm^3(±SD)” value [3, 5] of the same molecule?
**A.** The value was 405 (±56) mm^3.

**Q.** And the “Tumor growth inhibition (%)” value [3, 5]?
**A.** Its value is 41%.

**Q.** With O=c1[nH]cc(F)c(=O)[nH]1 [5-FU, 5-fluoro-1H-pyrimidine-2,4-dione, reference compound] as the molecule, how does the “Fractional tumor volume (FTV), each treatment alone” value ([2]; day 31, FGFR1-ECD.339-Fc 15 mg/kg i.p. 2x/wk x 4 wks, 5-FU 33 mg/kg i.p. 2x/wk x 3 wks) read?
**A.** Its value is 1.04.

**Q.** Which “Fractional tumor volume (FTV), each treatment alone” value ([2]; day 31, FGFR1-ECD.339-Fc 15 mg/kg i.p. 2x/wk x 5 wks, paclitaxel 18 mg/kg i.p. days 8, 12, 15) does the source give for CC(=O)O[C@H]1C(=O)[C@@]2(C)[C@H]([C@H](OC(=O)c3ccccc3)[C@]3(O)C[C@H](OC(=O)[C@H](O)[C@@H](NC(=O)c4ccccc4)c4ccccc4)C(C)=C1C3(C)C)[C@]1(OC(C)=O)CO[C@@H]1C[C@@H]2O [Paclitaxel, (2α,4α,5β,7β,10β,13α)-4,10-bis(acetyloxy)-13-{[(2R,3S)-3-(benzoylamino)-2-hydroxy-3-phenylpropanoyl]oxy}-1,7-dihydroxy-9-oxo-5,20-epoxytax-11-en-2-yl benzoate, reference compound] here?
**A.** The value was 0.57.

**Q.** What about the “Fractional tumor volume (FTV), each treatment alone” value ([2]; day 38, FGFR1-ECD.339-Fc 15 mg/kg i.p. 2x/wk x 5 wks, paclitaxel 18 mg/kg i.p. days 8, 12, 15) of the same molecule?
**A.** Its value is 0.50.

**Q.** For N.N.[Cl][Pt][Cl] [Cisplatin, (SP-4-2)-diamminedichloridoplatinum, reference compound], which “Mean Tumor volume mm^3(±SD)” value [2, 6] is on record?
**A.** Its value is 682 (±195) mm^3.

**Q.** What about the “Tumor growth inhibition (%)” value [2, 6] of the same molecule?
**A.** The value was 49%.

**Q.** What about the “Fractional tumor volume (FTV) relative to control, each treatment alone” value ([2]; day 42, FGFR1-ECD.339-Fc 20 mg/kg, cisplatin 3.5 mg/kg) of the same molecule?
**A.** Its value is 0.5.

**Q.** For Nc1nc2[nH]cc(CCc3ccc(C(=O)N[C@@H](CCC(=O)O)C(=O)O)cc3)c2c(=O)[nH]1 [Pemetrexed, (S)-2-[4-[2-(4-amino-2-oxo-3,5,7-triazabicyclo[4.3.0]nona-3,8,10-trien-9-yl)ethyl]benzoyl]aminopentanedioic acid, reference compound], which “Body weight / tolerability” value ([1]; H520 study, high dose of pemetrexed, 250 mg/kg i.p. QD x 5, FIG. 4B) is on record?
**A.** Its value is “approaching the maximum tolerated dose”.

**Q.** What about the “Body weight / tolerability” value ([1]; mouse, in vivo, ip) of the same molecule?
**A.** The value was “initially lost significant body weight”.

**Q.** And the “Tumor inhibition over the course of the study (mean tumor volume)” value ([4]; FIG. 4A, highest dose of pemetrexed (250 mg/kg), alone or with FGFR1-ECD.339-Fc 15 mg/kg)?
**A.** The value was “did not appear to inhibit tumor growth”.

**Q.** And the “Tumor inhibition over the course of the study (mean tumor volume)” value ([4]; FIGS. 2A, 3A, 4A, FGFR1-ECD.339-Fc 15 mg/kg, pemetrexed alone at the low or medium dose (62.5 or 125 mg/kg), combination dosed concurrently)?
**A.** The value was “resulted in tumor inhibition”.

Reference: US8951972B2, “FGFR1 extracellular domain combination therapies for lung cancer” (Five Prime Therapeutics, Inc., priority 2010, dated 2015)
